Test results from publication PMC6590375 (Journal of Clinical Pharmacology, 2019).
Where two headings read alike, the source gives them in different places.

Key:
[1] = assay type: in vivo, human; conditions: for AUCinf central value, higher than in subjects with normal renal function: regression analyses
[2] = assay type: in vivo, human
[3] = human, plasma, oral
[4] = cited from earlier work
[5] = mild renal impairment (N = 6), single 15-mg extended-release dose, fasting
[6] = normal renal function (N = 6), single 15-mg extended-release dose, fasting
[7] = severe renal impairment (N = 6), single 15-mg extended-release dose, fasting
[8] = single 15 mg dose, all subjects

Structure (SMILES): CC[C@@H]1CN(C(=O)NCC(F)(F)F)C[C@@H]1c1cnc2cnc3[nH]ccc3n12 [Upadacitinib]
- CL renal ([1]; both, human, urine and plasma, oral, 15 mg): 32.7 mL/min
- fe (fraction of dose excreted unchanged in urine), arithmetic mean ± SD [1, 5]: 7.03 ± 3.05%
- fe (fraction of dose excreted unchanged in urine), geometric mean [1, 5]: 6.51%
- CLR (renal clearance), arithmetic mean ± SD [1, 6]: 5.64 ± 2.13 L/h
- fe (fraction of dose excreted unchanged in urine), arithmetic mean ± SD [1, 6]: 9.91 ± 4.05%
- fe (fraction of dose excreted unchanged in urine), geometric mean [1, 6]: 9.24%
- AUCinf central value, higher than in subjects with normal renal function ([1]; mild renal impairment): 18%
- AUCinf central value, higher than in subjects with normal renal function ([1]; moderate renal impairment): 33%
- AUCinf central value, higher than in subjects with normal renal function ([1]; severe renal impairment): 44%
- fe (fraction of dose excreted unchanged in urine), arithmetic mean ± SD [1, 7]: 2.48 ± 1.62%
- fe (fraction of dose excreted unchanged in urine), geometric mean [1, 7]: 2.10%
- Adverse events ([2]; one subject in the mild renal impairment group, mild, reasonable possibility of being related to study drug, no other adverse events reported): diarrhea and upper respiratory infection
- Physical exam, vital signs, electrocardiogram and laboratory findings [2, 8]: no clinically significant physical exam findings, vital sign measurements, electrocardiogram abnormalities, or laboratory test abnormalities
- Tolerability [2, 8]: well tolerated
- CL renal [3]: ~400 mL/min
- Immediate-release dose eliminated in urine as unchanged upadacitinib ([4]; immediate-release formulation): Approximately 20%
- Dose proportionality of plasma exposures ([4]; over the range of immediate-release or extended-release doses evaluated in clinical studies): approximately dose‐proportional
